{"source": "paper PMC7312786", "about": "(Biochemistry, 2018)", "key": {"hpol η": {"target": "T1, hpol η (Homo sapiens, UniProt Q9Y253)", "T1 sequence (Q9Y253 1-437)": "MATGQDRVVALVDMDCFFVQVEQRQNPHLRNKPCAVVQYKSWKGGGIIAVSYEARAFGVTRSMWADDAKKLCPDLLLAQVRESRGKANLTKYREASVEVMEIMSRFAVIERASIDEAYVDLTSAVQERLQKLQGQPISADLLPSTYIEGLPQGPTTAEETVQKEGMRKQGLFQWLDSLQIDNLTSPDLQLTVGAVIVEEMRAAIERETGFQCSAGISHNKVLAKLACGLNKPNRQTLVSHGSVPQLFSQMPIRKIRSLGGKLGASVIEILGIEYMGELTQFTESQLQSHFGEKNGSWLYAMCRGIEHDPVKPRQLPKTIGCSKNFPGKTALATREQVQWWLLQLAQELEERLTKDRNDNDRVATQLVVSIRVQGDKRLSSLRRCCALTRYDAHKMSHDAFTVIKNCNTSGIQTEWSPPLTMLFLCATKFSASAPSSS", "test": "Steady-state kinetic analysis of hpol η activity", "type": "biochemical"}, "hpol θ": {"target": "T2, hpol θ (Homo sapiens, UniProt O75417)", "T2 sequence (O75417 1792-2590)": "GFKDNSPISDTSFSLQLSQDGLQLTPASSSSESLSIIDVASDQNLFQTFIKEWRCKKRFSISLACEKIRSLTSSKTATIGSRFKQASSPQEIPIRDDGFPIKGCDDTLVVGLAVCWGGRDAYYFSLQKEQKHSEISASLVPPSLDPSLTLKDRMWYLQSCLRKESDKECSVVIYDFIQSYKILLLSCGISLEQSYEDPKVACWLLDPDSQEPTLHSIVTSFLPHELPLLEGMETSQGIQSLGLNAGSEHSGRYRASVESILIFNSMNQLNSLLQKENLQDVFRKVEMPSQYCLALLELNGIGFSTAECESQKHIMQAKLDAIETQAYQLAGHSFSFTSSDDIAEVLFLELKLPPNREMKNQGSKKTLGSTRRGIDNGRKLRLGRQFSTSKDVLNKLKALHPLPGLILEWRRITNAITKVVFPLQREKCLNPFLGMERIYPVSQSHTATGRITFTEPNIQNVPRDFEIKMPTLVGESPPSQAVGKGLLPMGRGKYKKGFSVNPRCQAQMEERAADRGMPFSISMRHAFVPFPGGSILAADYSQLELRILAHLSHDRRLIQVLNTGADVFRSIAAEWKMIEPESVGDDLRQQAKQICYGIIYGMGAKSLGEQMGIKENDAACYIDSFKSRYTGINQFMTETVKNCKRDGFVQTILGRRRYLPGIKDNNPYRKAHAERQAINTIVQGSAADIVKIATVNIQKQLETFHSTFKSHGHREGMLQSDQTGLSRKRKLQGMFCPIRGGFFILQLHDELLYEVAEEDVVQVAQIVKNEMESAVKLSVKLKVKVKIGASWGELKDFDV", "test": "Fluorescence-based pol activity assay, hpol θ", "type": "biochemical", "conditions": "20 μM PNR-7-02; mean (±SD)"}, "OVCAR3 cells": {"test_system": "OVCAR3 cells", "test": "Combined treatment of OVCAR3 cells with CDDP and PNR-7-02", "type": "cell-based, human"}, "hpol ε": {"target": "T3, hpol ε (Homo sapiens, UniProt Q07864, D275A/E277A)", "T3 sequence (Q07864 1-1189 D275A/E277A limits assumed)": "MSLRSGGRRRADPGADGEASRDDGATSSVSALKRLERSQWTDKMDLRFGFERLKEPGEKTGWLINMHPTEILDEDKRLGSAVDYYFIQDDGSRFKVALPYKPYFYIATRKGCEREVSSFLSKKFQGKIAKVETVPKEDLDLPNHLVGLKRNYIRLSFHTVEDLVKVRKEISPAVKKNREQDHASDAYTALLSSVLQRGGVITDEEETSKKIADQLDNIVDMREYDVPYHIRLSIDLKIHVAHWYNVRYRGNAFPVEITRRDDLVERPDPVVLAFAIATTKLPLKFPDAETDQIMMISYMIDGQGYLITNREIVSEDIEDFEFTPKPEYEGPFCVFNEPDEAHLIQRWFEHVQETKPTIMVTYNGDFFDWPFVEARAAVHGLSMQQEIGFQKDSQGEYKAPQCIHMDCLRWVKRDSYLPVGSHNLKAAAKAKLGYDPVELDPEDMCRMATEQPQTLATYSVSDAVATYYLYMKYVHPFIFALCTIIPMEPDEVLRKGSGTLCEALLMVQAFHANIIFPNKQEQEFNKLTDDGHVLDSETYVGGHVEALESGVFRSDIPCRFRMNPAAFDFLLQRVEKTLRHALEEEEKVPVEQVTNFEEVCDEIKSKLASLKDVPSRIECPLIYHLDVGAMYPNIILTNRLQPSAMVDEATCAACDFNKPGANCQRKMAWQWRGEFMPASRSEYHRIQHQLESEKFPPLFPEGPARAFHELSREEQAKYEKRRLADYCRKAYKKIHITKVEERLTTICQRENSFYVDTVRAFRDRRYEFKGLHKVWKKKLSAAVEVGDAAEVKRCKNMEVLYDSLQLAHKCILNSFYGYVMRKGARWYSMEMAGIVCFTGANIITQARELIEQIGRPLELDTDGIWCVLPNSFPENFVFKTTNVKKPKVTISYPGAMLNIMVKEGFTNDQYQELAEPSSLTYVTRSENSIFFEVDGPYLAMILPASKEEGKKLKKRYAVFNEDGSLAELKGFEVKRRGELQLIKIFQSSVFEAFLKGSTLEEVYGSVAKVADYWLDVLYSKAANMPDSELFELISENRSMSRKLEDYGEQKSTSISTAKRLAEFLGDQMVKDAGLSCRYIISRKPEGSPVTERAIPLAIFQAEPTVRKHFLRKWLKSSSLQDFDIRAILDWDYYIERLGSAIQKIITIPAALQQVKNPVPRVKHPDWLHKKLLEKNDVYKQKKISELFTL", "test": "Fluorescence-based pol activity assay, hpol ε", "type": "biochemical"}}, "data": [{"molecule": "O=C1NC(=S)NC(=O)C1=Cc1cn(Cc2ccc3ccccc3c2)c2ccc(Cl)cc12", "note": "[PNR-7-02, 5-((5-chloro-1-(naphthalen-2-ylmethyl)-1H-indol-3-yl)methylene)-2-thioxodihydropyrimidine-4,6-(1H,5H)-dione]", "values": [{"measurement": "Effect on KM,dTTP of hpol η", "setting": "hpol η; 0–9 μM PNR-7-02", "value": "nonlinear increase"}, {"measurement": "Effect on kcat of hpol η", "setting": "hpol η; PNR-7-02 near or below the IC50", "value": "no change"}, {"measurement": "Pol activity relative to DMSO control, hpol θ", "setting": "hpol θ", "value": "86 (±1) %"}, {"measurement": "Combination index (CI) with CDDP", "setting": "OVCAR3 cells", "value": 0.4}, {"measurement": "Pol activity relative to DMSO control, hpol ε", "setting": "hpol ε; 20 μM PNR-7-02, mean (±SD)", "value": "32 (±5) %"}, {"measurement": "Specificity for hpol η over replicative pols (hpol ε)", "setting": "hpol ε; from activity at 20 μM PNR-7-02", "value": "5–10 fold"}]}]}
